≈ marks a conversion by molar mass, not a printed value. Read-outs that look alike come from different tables or passages of the source. Positions of bridges follow the written chain, without caps; N, C: chain ends. Residues, ends and D or L forms follow the SMILES beside them.
Tests used:
[1] = test system: Pseudomonas aeruginosa (PSA, ATCC 27883); assay: Synergy checkerboard assay (FIC index); assay type: cell-based; details: Pseudomonas aeruginosa (ATCC 27883), antibiotic alone
[2] = test system: Klebsiella pneumoniae (KPC, ATCC BAA-1705); details: Klebsiella pneumoniae (ATCC BAA-1705); antibiotic alone
[3] = test system: Escherichia coli (E. Coli, ATCC 25922); details: Escherichia coli (ATCC 25922), antibiotic alone
[4] = test system: Pseudomonas aeruginosa (PSA, ATCC 27883); assay: microbe, parasite or virus in culture; details: ATCC27883, 24 h
[5] = test system: Klebsiella pneumoniae (KPC, ATCC BAA-1705); assay: microbe, parasite or virus in culture; details: ATCCBAA1705, 24 h
[6] = test system: Escherichia coli (E. Coli, ATCC 25922); assay: microbe, parasite or virus in culture; details: ATCC25922, 24 h
[7] = test system: Klebsiella pneumoniae (KPC, ATCC BAA-1705); assay: microbe, parasite or virus in culture; details: ATCCBAA1705, 24 h, read-out: MIC of antibiotic
[8] = test system: Enterococcus faecium ATCC 27270; details: ATCC 27270
[9] = test system: Enterococcus faecium ATCC 700221; details: ATCC 700221
[10] = test system: Staphylococcus aureus ATCC 29213
[11] = test system: Klebsiella pneumoniae ATCC 13883; details: ATCC 13883
[12] = test system: Enterococcus faecalis ATCC 29212; details: ATCC 29212
[13] = test system: Enterococcus faecalis ATCC 51575; details: ATCC 51575
[14] = test system: Bacillus subtilis (ATCC-6633)
[15] = test system: Bacillus cereus (ATCC-13061)
[16] = test system: Escherichia coli (ATCC BAA-2452); details: ATCC BAA-2452
[17] = test system: Acinetobacter baumannii (ATCC BAA-1605); details: ATCC BAA-1605
[18] = test system: Pseudomonas aeruginosa (ATCC 10145); details: ATCC 10145
[19] = test system: Pseudomonas aeruginosa (ATCC BAA-1744); details: ATCC BAA-1744

C[C@H]1COc2c(N3CCN(C)CC3)c(F)cc3c(=O)c(C(=O)O)cn1c23 [Levofloxacin]
MIC ([1]; ATCC27883, 24 h, Table 25): 1 µg/mL
MIC of antibiotic ([1]; Table 26): 1 µg/mL
MIC of antibiotic [2]: 64 µg/mL
MIC of antibiotic [3]: 64 µg/mL
MIC of antibiotic ([3]; Table 25): 64 µg/mL
MIC of antibiotic ([3]; Table 26): 64 µg/mL
MIC ([4]; read-out: Pseudomonas aeruginosa (ATCC 27883) MIC, Table 28, IFX-031, antibiotics alone and PHY-MIX (1:1 w/w)): 1 µg/mL (≈ 2.77 µM)
MIC ([4]; read-out: Pseudomonas aeruginosa (ATCC 27883) MIC, Table 29, [R6W4] (IFX-318), antibiotics alone and PHY-MIX (1:1 w/w)): 1 µg/mL (≈ 2.77 µM)
MIC ([4]; read-out: Pseudomonas aeruginosa (ATCC 27883) MIC, Table 30, [R5W4K] (IFX-315), antibiotics alone and PHY-MIX (1:1 w/w)): 1 µg/mL (≈ 2.77 µM)
MIC ([4]; read-out: Pseudomonas aeruginosa (ATCC 27883) MIC, Table 31, [R5W4] (IFX-301), antibiotics alone and PHY-MIX (1:1 w/w)): 1 µg/mL (≈ 2.77 µM)
MIC ([5]; read-out: Klebsiella pneumoniae (ATCC BAA-1705) MIC, Table 28, IFX-031, antibiotics alone and PHY-MIX (1:1 w/w)): 32 µg/mL (≈ 88.6 µM)
MIC ([5]; read-out: Klebsiella pneumoniae (ATCC BAA-1705) MIC, Table 29, [R6W4] (IFX-318), antibiotics alone and PHY-MIX (1:1 w/w)): 64 µg/mL (≈ 177 µM)
MIC ([5]; read-out: Klebsiella pneumoniae (ATCC BAA-1705) MIC, Table 30, [R5W4K] (IFX-315), antibiotics alone and PHY-MIX (1:1 w/w)): 64 µg/mL (≈ 177 µM)
MIC ([5]; read-out: Klebsiella pneumoniae (ATCC BAA-1705) MIC, Table 31, [R5W4] (IFX-301), antibiotics alone and PHY-MIX (1:1 w/w)): 64 µg/mL (≈ 177 µM)
MIC ([6]; read-out: Escherichia coli (ATCC 25922) MIC, Table 28, IFX-031, antibiotics alone and PHY-MIX (1:1 w/w)): 16 µg/mL (≈ 44.3 µM)
MIC ([6]; read-out: Escherichia coli (ATCC 25922) MIC, Table 29, [R6W4] (IFX-318), antibiotics alone and PHY-MIX (1:1 w/w)): 64 µg/mL (≈ 177 µM)
MIC ([6]; read-out: Escherichia coli (ATCC 25922) MIC, Table 30, [R5W4K] (IFX-315), antibiotics alone and PHY-MIX (1:1 w/w)): 64 µg/mL (≈ 177 µM)
MIC ([6]; read-out: Escherichia coli (ATCC 25922) MIC, Table 31, [R5W4] (IFX-301), antibiotics alone and PHY-MIX (1:1 w/w)): 64 µg/mL (≈ 177 µM)
MIC [7]: 64 µg/mL

N=C(N)NCCC[C@@H]1NC(=O)[C@H](CCCNC(=N)N)NC(=O)[C@H](CCCNC(=N)N)NC(=O)[C@@H]2CSSC[C@H](NC(=O)[C@H](CCCNC(=N)N)NC1=O)C(=O)N[C@@H](Cc1c[nH]c3ccccc13)C(=O)N[C@@H](Cc1c[nH]c3ccccc13)C(=O)N[C@@H](Cc1c[nH]c3ccccc13)C(=O)N[C@@H](Cc1c[nH]c3ccccc13)C(=O)N2 [[R3CW4CR] (IFX-330)] (cyclo(RRRCWWWWCR); disulfide 4-9)
MIC [8]: 8 µg/mL (≈ 5.08 µM)
MIC [9]: 8 µg/mL (≈ 5.08 µM)
MIC [10]: 16 µg/mL (≈ 10.2 µM)
MIC [11]: 32 µg/mL (≈ 20.3 µM)
MIC [12]: 32 µg/mL (≈ 20.3 µM)
MIC [13]: 32 µg/mL (≈ 20.3 µM)
MIC (MRSA): 8 µg/mL (≈ 5.08 µM)
MIC (KPC): 32 µg/mL (≈ 20.3 µM)
MIC (PSA): 128 µg/mL (≈ 81.3 µM)
MIC (E. coli): 32 µg/mL (≈ 20.3 µM)
MIC [14]: 8 µg/mL (≈ 5.08 µM)
MIC [15]: 16 µg/mL (≈ 10.2 µM)
MIC [16]: 32 µg/mL (≈ 20.3 µM)
MIC [17]: 32 µg/mL (≈ 20.3 µM)
MIC [18]: 64 µg/mL (≈ 40.7 µM)
MIC [19]: 32 µg/mL (≈ 20.3 µM)
